Reference: US9630977B2, “Cephalosporin derivatives and pharmaceutical compositions thereof” (Legochem Biosciences, Inc., priority 2011, dated 2017)

These compounds were tested on A. baumannii 46 (assay: In vitro antibacterial activity test (broth microdilution)). Conditions: A. baumannii 46.
Type: cell-based
Method: (§1) To evaluate antibacterial activity of each of the compounds of Examples 1 to 68, in vitro antibacterial activity test was performed.
(§2) The in vitro antibacterial activity was evaluated by measuring MIC90 (ug/mL) of each of the compounds of Examples 1 to 68, which is defined as the lowest concentration of an antibiotic that will inhibit the visible growth of 90% of microorganisms after incubation as compared with a control group to which the antibiotic is not treated. MIC90 values were measured by the broth microdilution method developed by the Clinical and Laboratory Standards Institute (CLSI) (see CLSI M7-A5, Methods for Dilution Antimicrobial Susceptibility Test for Bacteria that Grow Aerobically-Fifth Edition (2000): CLSI, Villanova, Pa.).
(§3) In vitro antibacterial activity was measured with respect to the following 19 clinical isolates: M. catarrhalis; P. aeruginosa (5 strains); K. pneumoniae (6 strains); A. baumannii (3 strains); E. coli (2 strains); A. calcoaceticus; and E. cloacae.
(§4) Test compounds each (the cephalosporin derivative compounds prepared in Examples 1 to 68) were dissolved in DMSO at the concentration of 10,240 ug/mL, were diluted by two fold with DMSO, and then were diluted by twenty fold with sterilized distilled water. The final concentration in the antibacterial activity test was in the range of […] to 128 ug/mL, and the final concentration of DMSO used as an adjuvant was 2.5% (V/V).
For `CC(C)(ON=C(C(=O)NC1C(=O)N2C(C(=O)O)=C(C=CC[n+]3cnc(N)c(NC(=O)CCN)c3N)CSC12)c1csc(N)n1)C(=O)O.O=C([O-])C(F)(F)F` (stereo not shown) [Compound 45], the MIC90 was 16 µg/mL.

Each compound was assayed on A. baumannii 49 in the same assay as above. Conditions: A. baumannii 49.
Type: cell-based
Method: as §1, §2, §3, §4
For `CC(C)(ON=C(C(=O)NC1C(=O)N2C(C(=O)O)=C(C=CC[n+]3cnc(N)c(NC(=O)CCN)c3N)CSC12)c1csc(N)n1)C(=O)O.O=C([O-])C(F)(F)F` (stereo not shown) [Compound 45], the MIC90 was over 128 µg/mL.

The compounds below were run on A. baumannii 52 in the same assay as above. Conditions: A. baumannii 52.
Type: cell-based
Method: as §1, §2, §3, §4
In the case of `CC(C)(ON=C(C(=O)NC1C(=O)N2C(C(=O)O)=C(C=CC[n+]3cnc(N)c(NC(=O)CCN)c3N)CSC12)c1csc(N)n1)C(=O)O.O=C([O-])C(F)(F)F` (stereo not shown) [Compound 45], the MIC90 is reported as over 128 µg/mL.

Each compound was assayed on A. calcoaceticus ATCC15473 in the same assay as above. Conditions: A. calcoaceticus ATCC15473.
Type: cell-based
Method: as §1, §2, §3, §4
With `CC(C)(ON=C(C(=O)NC1C(=O)N2C(C(=O)O)=C(C=CC[n+]3cnc(N)c(NC(=O)CCN)c3N)CSC12)c1csc(N)n1)C(=O)O.O=C([O-])C(F)(F)F` (stereo not shown) [Compound 45] the MIC90 was 2 µg/mL.

The compounds below were run on E. cloacae β19 in the same assay as above. Conditions: not given.
Type: cell-based
Method: as §1, §2, §3, §4
For `CC(C)(ON=C(C(=O)NC1C(=O)N2C(C(=O)O)=C(C=CC[n+]3cnc(N)c(NC(=O)CCN)c3N)CSC12)c1csc(N)n1)C(=O)O.O=C([O-])C(F)(F)F` (stereo not shown) [Compound 45], the MIC90 was 0.25 µg/mL.

These compounds were tested on E. coli AG100 in the same assay as above. Conditions: E. coli AG100.
Type: cell-based
Method: as §1, §2, §3, §4
Work on `CC(C)(ON=C(C(=O)NC1C(=O)N2C(C(=O)O)=C(C=CC[n+]3cnc(N)c(NC(=O)CCN)c3N)CSC12)c1csc(N)n1)C(=O)O.O=C([O-])C(F)(F)F` (stereo not shown) [Compound 45] yielded an MIC90 of 0.25 µg/mL.

The compounds below were run on E. coli β4 in the same assay as above. Conditions: not given.
Type: cell-based
Method: as §1, §2, §3, §4
`CC(C)(ON=C(C(=O)NC1C(=O)N2C(C(=O)O)=C(C=CC[n+]3cnc(N)c(NC(=O)CCN)c3N)CSC12)c1csc(N)n1)C(=O)O.O=C([O-])C(F)(F)F` (stereo not shown) [Compound 45] was tested, and the MIC90 was 0.25 µg/mL.

What follows are compounds tested on K. pneumoniae 2011E in the same assay as above. Conditions: K. pneumoniae 2011E.
Type: cell-based
Method: as §1, §2, §3, §4
With `CC(C)(ON=C(C(=O)NC1C(=O)N2C(C(=O)O)=C(C=CC[n+]3cnc(N)c(NC(=O)CCN)c3N)CSC12)c1csc(N)n1)C(=O)O.O=C([O-])C(F)(F)F` (stereo not shown) [Compound 45] the MIC90 was 0.5 µg/mL.

These compounds were tested on K. pneumoniae β10 in the same assay as above. Conditions: K. pneumoniae β10.
Type: cell-based
Method: as §1, §2, §3, §4
`CC(C)(ON=C(C(=O)NC1C(=O)N2C(C(=O)O)=C(C=CC[n+]3cnc(N)c(NC(=O)CCN)c3N)CSC12)c1csc(N)n1)C(=O)O.O=C([O-])C(F)(F)F` (stereo not shown) [Compound 45] was tested, and the MIC90 was 0.5 µg/mL.

What follows are compounds tested on K. pneumoniae β11 in the same assay as above. Conditions: K. pneumoniae β11.
Type: cell-based
Method: as §1, §2, §3, §4
`CC(C)(ON=C(C(=O)NC1C(=O)N2C(C(=O)O)=C(C=CC[n+]3cnc(N)c(NC(=O)CCN)c3N)CSC12)c1csc(N)n1)C(=O)O.O=C([O-])C(F)(F)F` (stereo not shown) [Compound 45] showed an MIC90 of 16 µg/mL.

The compounds below were run on K. pneumoniae β13 in the same assay as above. Conditions: K. pneumoniae β13.
Type: cell-based
Method: as §1, §2, §3, §4
For `CC(C)(ON=C(C(=O)NC1C(=O)N2C(C(=O)O)=C(C=CC[n+]3cnc(N)c(NC(=O)CCN)c3N)CSC12)c1csc(N)n1)C(=O)O.O=C([O-])C(F)(F)F` (stereo not shown) [Compound 45], the MIC90 was 0.5 µg/mL.

What follows are compounds tested on K. pneumoniae β14 in the same assay as above. Conditions: not given.
Type: cell-based
Method: as §1, §2, §3, §4
`CC(C)(ON=C(C(=O)NC1C(=O)N2C(C(=O)O)=C(C=CC[n+]3cnc(N)c(NC(=O)CCN)c3N)CSC12)c1csc(N)n1)C(=O)O.O=C([O-])C(F)(F)F` (stereo not shown) [Compound 45] showed an MIC90 of 1 µg/mL.

These compounds were tested on K. pneumoniae β9 in the same assay as above. Conditions: K. pneumoniae β9.
Type: cell-based
Method: as §1, §2, §3, §4
With `CC(C)(ON=C(C(=O)NC1C(=O)N2C(C(=O)O)=C(C=CC[n+]3cnc(N)c(NC(=O)CCN)c3N)CSC12)c1csc(N)n1)C(=O)O.O=C([O-])C(F)(F)F` (stereo not shown) [Compound 45] the MIC90 was 0.5 µg/mL.

Each compound was assayed on M. catarrhalis 2524 in the same assay as above. Conditions: M. catarrhalis 2524.
Type: cell-based
Method: as §1, §2, §3, §4
`CC(C)(ON=C(C(=O)NC1C(=O)N2C(C(=O)O)=C(C=CC[n+]3cnc(N)c(NC(=O)CCN)c3N)CSC12)c1csc(N)n1)C(=O)O.O=C([O-])C(F)(F)F` (stereo not shown) [Compound 45] was tested, and the MIC90 was under 0.0625 µg/mL.

What follows are compounds tested on P. aeruginosa 1912E in the same assay as above. Conditions: not given.
Type: cell-based
Method: as §1, §2, §3, §4
`CC(C)(ON=C(C(=O)NC1C(=O)N2C(C(=O)O)=C(C=CC[n+]3cnc(N)c(NC(=O)CCN)c3N)CSC12)c1csc(N)n1)C(=O)O.O=C([O-])C(F)(F)F` (stereo not shown) [Compound 45] was tested, and the MIC90 was 4 µg/mL.

What follows are compounds tested on P. aeruginosa 37 in the same assay as above. Conditions: P. aeruginosa 37.
Type: cell-based
Method: as §1, §2, §3, §4
`CC(C)(ON=C(C(=O)NC1C(=O)N2C(C(=O)O)=C(C=CC[n+]3cnc(N)c(NC(=O)CCN)c3N)CSC12)c1csc(N)n1)C(=O)O.O=C([O-])C(F)(F)F` (stereo not shown) [Compound 45] gave an MIC90 of 16 µg/mL.

Each compound was assayed on P. aeruginosa 40 in the same assay as above. Conditions: P. aeruginosa 40.
Type: cell-based
Method: as §1, §2, §3, §4
With `CC(C)(ON=C(C(=O)NC1C(=O)N2C(C(=O)O)=C(C=CC[n+]3cnc(N)c(NC(=O)CCN)c3N)CSC12)c1csc(N)n1)C(=O)O.O=C([O-])C(F)(F)F` (stereo not shown) [Compound 45] the MIC90 was 8 µg/mL.

Each compound was assayed on P. aeruginosa 43 in the same assay as above. Conditions: P. aeruginosa 43.
Type: cell-based
Method: as §1, §2, §3, §4
`CC(C)(ON=C(C(=O)NC1C(=O)N2C(C(=O)O)=C(C=CC[n+]3cnc(N)c(NC(=O)CCN)c3N)CSC12)c1csc(N)n1)C(=O)O.O=C([O-])C(F)(F)F` (stereo not shown) [Compound 45] showed an MIC90 of over 128 µg/mL.

The compounds below were run on P. aeruginosa 6065Y in the same assay as above. Conditions: not given.
Type: cell-based
Method: as §1, §2, §3, §4
`CC(C)(ON=C(C(=O)NC1C(=O)N2C(C(=O)O)=C(C=CC[n+]3cnc(N)c(NC(=O)CCN)c3N)CSC12)c1csc(N)n1)C(=O)O.O=C([O-])C(F)(F)F` (stereo not shown) [Compound 45] showed an MIC90 of 16 µg/mL.
